# Data from publication PMC7044277 (Nature Communications, 2020).
# “And” between values parts separate entries of the source, which are not always exact repeats. Equal entries are not always repeated.
# Key:
# Format in all cases: cell-based
# [1] = biological target: T1, 320 non-olfactory GPCRs (Homo sapiens, UniProt P48145); conditions: receptor NPBW1; replicate values, Fig_4g
# T1 construct: expressed in transfected cells; host or cells: HTLA cells
# [2] = biological target: T2, 320 non-olfactory GPCRs (Homo sapiens, UniProt Q01726); conditions: receptor MC1R; replicate values, Fig_4g
# T2 construct: expressed in transfected cells; host or cells: HTLA cells
# [3] = biological target: T3, 320 non-olfactory GPCRs (Homo sapiens, UniProt P41968); conditions: receptor MC3Rb; replicate values, Fig_4g
# T3 construct: expressed in transfected cells; host or cells: HTLA cells
# [4] = biological target: 320 non-olfactory GPCRs (Homo sapiens, UniProt P43220)
# 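Throughout, for Fold of Basal: compound tested at 1 µM final concentration.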
# 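Throughout, for GPCRome agonism screen response: fold over basal response of each receptor without drug.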
# T2 sequence (Q01726 whole entry): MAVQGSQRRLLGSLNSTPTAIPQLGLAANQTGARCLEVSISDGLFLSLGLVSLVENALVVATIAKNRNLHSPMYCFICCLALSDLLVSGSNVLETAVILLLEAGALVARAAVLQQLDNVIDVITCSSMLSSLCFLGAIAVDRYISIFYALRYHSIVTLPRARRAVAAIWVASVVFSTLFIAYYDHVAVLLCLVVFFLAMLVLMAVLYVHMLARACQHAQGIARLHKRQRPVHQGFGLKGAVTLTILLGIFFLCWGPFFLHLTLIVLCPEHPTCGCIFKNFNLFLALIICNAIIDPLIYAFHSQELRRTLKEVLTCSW
# T1 sequence (P48145 whole entry): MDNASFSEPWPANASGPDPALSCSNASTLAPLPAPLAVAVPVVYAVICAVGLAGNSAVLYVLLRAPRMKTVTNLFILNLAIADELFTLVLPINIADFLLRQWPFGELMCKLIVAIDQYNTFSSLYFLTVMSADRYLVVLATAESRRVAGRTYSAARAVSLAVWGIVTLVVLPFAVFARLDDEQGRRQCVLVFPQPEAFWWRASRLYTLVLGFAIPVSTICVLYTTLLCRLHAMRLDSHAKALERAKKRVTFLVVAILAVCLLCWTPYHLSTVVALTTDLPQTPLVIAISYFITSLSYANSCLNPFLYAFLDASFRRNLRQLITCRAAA
# T3 sequence (P41968 whole entry): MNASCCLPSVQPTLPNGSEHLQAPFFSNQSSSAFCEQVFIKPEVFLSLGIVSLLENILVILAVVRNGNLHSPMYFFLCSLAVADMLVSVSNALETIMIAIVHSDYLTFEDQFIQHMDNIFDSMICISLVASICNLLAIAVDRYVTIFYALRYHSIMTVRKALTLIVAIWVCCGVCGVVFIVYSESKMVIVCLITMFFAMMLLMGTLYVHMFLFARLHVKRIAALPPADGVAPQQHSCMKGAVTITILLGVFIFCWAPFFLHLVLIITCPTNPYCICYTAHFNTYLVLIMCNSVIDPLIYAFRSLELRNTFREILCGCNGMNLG
# 320 non-olfactory GPCRs (Homo sapiens, UniProt P43220), sequence (P43220 24-463): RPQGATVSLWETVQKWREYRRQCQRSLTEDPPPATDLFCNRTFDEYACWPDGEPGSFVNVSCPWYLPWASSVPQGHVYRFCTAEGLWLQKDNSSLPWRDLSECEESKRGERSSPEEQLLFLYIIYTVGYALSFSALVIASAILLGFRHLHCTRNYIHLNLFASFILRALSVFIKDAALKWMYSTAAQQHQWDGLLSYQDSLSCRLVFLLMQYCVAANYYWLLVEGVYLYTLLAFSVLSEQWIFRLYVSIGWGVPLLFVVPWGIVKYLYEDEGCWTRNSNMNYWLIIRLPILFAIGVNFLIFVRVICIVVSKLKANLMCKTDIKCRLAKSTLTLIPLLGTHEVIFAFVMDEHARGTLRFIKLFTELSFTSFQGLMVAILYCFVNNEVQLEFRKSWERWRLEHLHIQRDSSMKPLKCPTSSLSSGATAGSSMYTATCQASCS
compound,measurement,setting,value
CCOc1cccc2cc(C(C)NCC3(O)CCCCC3)oc12 (stereo not shown) [O4LE6],GPCRome agonism screen response,[1],1.094 and 1.2601 and 1.077 and 0.8815
same,GPCRome agonism screen response,[2],1.144 and 0.3717 and 0.6675 and 1.8673
same,GPCRome agonism screen response,[3],1.102 and 1.23 and 1.725 and 1.228
same,Fold of Basal,[4],0.6919 and 1.003 and 1.157 and 1.2674
